What was measured:
[1] = target: T1, human orexin-1 receptor (hOX1R) (Homo sapiens, UniProt O43613); assay: Measurement of orexin antagonistic activity (intracellular Ca2+ fluorescence, FDSS) on hOX1R; assay type: cell-based; details: CHO cells forcibly expressing hOX1R; Fluo-4AM; ligand peptide (substituted human orexin-A) 300 pM; compound preincubated 30 minutes; read-out: IC50 Value OX1
T1 construct: expressed in transfected cells; host or cells: Chinese hamster ovary (CHO) cells
T1 sequence (O43613 1-425): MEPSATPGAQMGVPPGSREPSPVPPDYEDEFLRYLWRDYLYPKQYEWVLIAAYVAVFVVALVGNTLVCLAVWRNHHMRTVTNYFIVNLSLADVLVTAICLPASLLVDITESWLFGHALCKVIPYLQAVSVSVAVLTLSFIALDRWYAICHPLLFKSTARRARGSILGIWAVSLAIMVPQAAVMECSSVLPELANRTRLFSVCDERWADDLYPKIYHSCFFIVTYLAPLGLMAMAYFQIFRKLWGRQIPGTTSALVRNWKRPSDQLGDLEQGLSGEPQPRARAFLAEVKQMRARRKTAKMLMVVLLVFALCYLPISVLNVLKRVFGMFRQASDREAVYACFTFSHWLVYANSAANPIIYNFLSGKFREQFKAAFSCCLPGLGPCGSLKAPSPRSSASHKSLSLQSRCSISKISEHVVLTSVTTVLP
Procedure: (§1) The antagonistic activities of the test compounds on human orexin-1 receptor (hOX1R) and orexin-2 receptor (hOX2R) were measured by modifying from the method described in literature (Toshikatsu Okumura et al., Biochemical and Biophysical Research Communications, 280, 976-981, 2001). Chinese hamster ovary (CHO) cells forcibly expressing the hOX1R and hOX2R were seeded into a 96 well Black clear bottom plate (Nunc) at 20,000 cells per well, which were cultured in Ham's F-12 medium containing 0.1 mM MEM non-essential amino acids, 0.5 mg/mL G418, 10% fetal bovine serum (all by Invitrogen) for 16 hours under the conditions of 37° C., 5% CO2. After removing the medium, 100 μL of 0.5 μM Fluo-4AM ester (Dojin) in an assay buffer (25 mM HEPES (Dojin), Hank's balanced salt solution (Invitrogen), 0.1% bovine serum albumin, 2.5 mM probenecid, 200 μg/mL Amaranth (all by Sigma-Aldrich), pH 7.4) was added and the cells were incubated for 60 minutes at 37° C., 5% CO2. After removing the assay buffer containing fluo-4AM ester, the test compound was dissolved in dimethyl sulfoxide to be 10 mM and diluted with the assay buffer, 150 μL, of which was added and incubated for 30 minutes.
(§2) The reaction was measured for the fluorescence intensity of each well every second for 3 minutes using Functional Drug Screening System (FDSS; Hamamatsu Photonics K.K.), and the antagonistic activity was determined using the maximum fluorescence intensity as the indicator of intracellular Ca2+ concentration.

[2] = target: T2, orexin-2 receptor (hOX2R) (Homo sapiens, UniProt O43614); assay: Measurement of orexin antagonistic activity (intracellular Ca2+ fluorescence, FDSS) on hOX2R; assay type: cell-based; details: CHO cells forcibly expressing hOX2R; Fluo-4AM; ligand peptide (substituted human orexin-A) 3 nM; compound preincubated 30 minutes; read-out: IC50 Value OX2
T2 construct: expressed in transfected cells; host or cells: Chinese hamster ovary (CHO) cells
T2 sequence (O43614 1-444): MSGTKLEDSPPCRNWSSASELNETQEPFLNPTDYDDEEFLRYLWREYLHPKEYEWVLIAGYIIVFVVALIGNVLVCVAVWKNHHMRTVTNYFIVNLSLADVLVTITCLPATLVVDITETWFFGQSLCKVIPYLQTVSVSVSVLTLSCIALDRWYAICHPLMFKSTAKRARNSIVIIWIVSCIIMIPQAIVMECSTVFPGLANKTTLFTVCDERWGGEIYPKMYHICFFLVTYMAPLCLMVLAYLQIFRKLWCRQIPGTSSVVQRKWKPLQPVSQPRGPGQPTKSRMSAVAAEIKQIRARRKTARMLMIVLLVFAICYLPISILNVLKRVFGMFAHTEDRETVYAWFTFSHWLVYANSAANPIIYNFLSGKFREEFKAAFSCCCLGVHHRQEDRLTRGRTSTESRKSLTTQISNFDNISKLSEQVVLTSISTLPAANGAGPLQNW
Procedure: as §1, §2

SMILES | IC50 [1] | IC50 [2]
Cc1ccc(-n2nccn2)c(C(=O)N(C)[C@H](Cn2ccc(-c3ccc(F)cn3)n2)C(C)C)c1 [Example 23, N-{(2S)-1-[3-(5-Fluoropyridin-2-yl)-1H-pyrazol-1-yl]-3-methylbutan-2-yl}-N,5-dimethyl-2-(2H-1,2,3-triazol-2-yl) benzamide] | 134 nM | 1890 nM
CC[C@@H](Cn1ccc(-c2ccc(F)cn2)n1)N(C)C(=O)c1cc(C)ccc1-n1nccn1 [Example 24, N-{(2S)-1-[3-(5-Fluoropyridin-2-yl)-1H-pyrazol-1-yl]butan-2-yl}-N,5-dimethyl-2-(2H-1,2,3-triazol-2-yl) benzamide] | 9.8 nM | 41.4 nM
CCN(C(=O)c1cc(C)ccc1-n1nccn1)[C@@H](C)Cn1cc(-c2ccc(F)cn2)cn1 [Example 25, N-Ethyl-N-{(2S)-1-[4-(5-fluoropyridin-2-yl)-1H-pyrazol-1-yl]propan-2-yl}5-methyl-2-(2H-1,2,3-triazol-2-yl) benzamide] | 0.7 nM | 6.4 nM
CCN(C(=O)c1nc(C)ccc1-n1nccn1)[C@@H](C)Cn1cc(-c2ccc(F)cc2)cn1 [Example 26, N-Ethyl-N-{(2S)-1-[4-(4-fluorophenyl)-1H-pyrazol-1-yl]propan-2-yl}-6-methyl-3-(2H-1,2,3-triazol-2-yl)pyridine-2-carboxamide] | 1.7 nM | 55.9 nM
CCN(C(=O)c1nc(C)ccc1-n1nccn1)[C@@H](C)Cn1cc(-c2ccc(F)c(F)c2)cn1 [Example 27, N-{(2S)-1-[4-(3,4-Difluorophenyl)-1H-pyrazol-1-yl]propan-2-yl}-N-ethyl-6-methyl-3-(2H-1,2,3-triazol-2-yl) pyridine-2-carboxamide] | 1.4 nM | 13.8 nM
Cc1ccc(-n2nccn2)c(C(=O)N(C)[C@@H](C)Cn2cc(-c3ccc(F)cc3)cn2)n1 [Example 28, N-{(2S)-1-[4-(4-Fluorophenyl)-1H-pyrazol-1-yl]propan-2-yl}-N,6-dimethyl-3-(2H-1,2,3-triazol-2-yl)pyridine-2-carboxamide] | 18.6 nM | 89.3 nM
Cc1ccc(-n2nccn2)c(C(=O)N(C)[C@@H](C)Cn2cc(-c3ccc(F)c(F)c3)cn2)n1 [Example 29, N-{(2S)-1-[4-(3,4-Difluorophenyl)-1H-pyrazol-1-yl]propan-2-yl}-N,6-dimethyl-3-(2H-1,2,3-triazol-2-yl)pyridine-2-carboxamide] | 10.1 nM | 25.6 nM
CCN(C(=O)c1cc(F)ccc1-c1ncccn1)[C@@H](C)Cn1cc(-c2ccc(F)cc2)cn1 [Example 30, N-Ethyl-5-fluoro-N-{(2S)-1-[4-(4-fluorophenyl)-1H-pyrazol-1-yl]propan-2-yl}-2-(pyrimidin-2-yl)benzamide] | 1.2 nM | 35.7 nM
CCN(C(=O)c1cc(F)ccc1-c1ncccn1)[C@@H](C)Cn1cc(-c2ccc(F)c(F)c2)cn1 [Example 31, N-{(2S)-1-[4-(3,4-Difluorophenyl)-1H-pyrazol-1-yl]propan-2-yl}-N-ethyl-5-fluoro-2-(pyrimidin-2-yl)benzamide] | 1 nM | 10.2 nM
C[C@@H](Cn1cc(-c2ccc(F)cc2)cn1)N(C)C(=O)c1cc(F)ccc1-c1ncccn1 [Example 32, 5-Fluoro-N-{(2S)-1-[4-(4-fluorophenyl)-1H-pyrazol-1-yl]propan-2-yl}-N-methyl-2-(pyrimidin-2-yl)benzamide] | 20.7 nM | 96.9 nM
C[C@@H](Cn1cc(-c2ccc(F)c(F)c2)cn1)N(C)C(=O)c1cc(F)ccc1-c1ncccn1 [Example 33, N-{(2S)-1-[4-(3,4-Difluorophenyl)-1H-pyrazol-1-yl]propan-2-yl}-5-fluoro-N-methyl-2-(pyrimidin-2-yl)benzamide] | 11.9 nM | 20.8 nM
CCN(C(=O)c1cc(F)ccc1-c1ncccn1)[C@@H](C)Cn1cc(-c2ccc(F)cn2)cn1 [Example 34, N-Ethyl-5-fluoro-N-{(2S)-1-[4-(5-fluoropyridin-2-yl)-1H-pyrazol-1-yl]propan-2-yl}-2-(pyrimidin-2-yl)benzamide] | 9.8 nM | 334 nM
CCN(C(=O)c1cc(C)ccc1-c1ncccn1)[C@@H](C)Cn1cc(-c2ccc(F)cn2)cn1 [Example 35, N-Ethyl-N-{(2S)-1-[4-(5-fluoropyridin-2-yl)-1H-pyrazol-1-yl]propan-2-yl}-5-methyl-2-(pyrimidin-2-yl)benzamide] | 3.4 nM | 62.8 nM
CCN(C(=O)c1cc(F)ccc1-n1nccn1)[C@@H](C)Cn1cc(-c2ccc(F)cn2)cn1 [Example 36, N-Ethyl-5-fluoro-N-{(2S)-1-[4-(5-fluoropyridin-2-yl)-1H-pyrazol-1-yl]propan-2-yl}-2-(2H-1,2,3-triazol-2-yl) benzamide] | 6.8 nM | 214 nM
CCN(C(=O)c1cc(Cl)ccc1-c1ncccn1)[C@@H](C)Cn1cc(-c2ccc(F)cn2)cn1 [Example 37, 5-Chloro-N-ethyl-N-{(2S)-1-[4-(5-fluoropyridin-2-yl)-1H-pyrazol-1-yl]propan-2-yl}-2-(pyrimidin-2-yl) benzamide] | 7.1 nM | 83.1 nM
COCCN(C(=O)c1cc(C)ccc1-n1nccn1)[C@@H](C)Cn1cc(-c2ccc(F)cn2)cn1 [Example 38, N-{(2S)-1-[4-(5-Fluoropyridin-2-yl)-1H-pyrazol-1-yl]propan-2-yl}-N-(2-methoxyethyl)-5-methyl-2-(2H-1,2,3-triazol-2-yl)benzamide] | 25.5 nM | 351 nM
COCCN(C(=O)c1cc(C)ccc1-n1nccn1)[C@@H](C)Cn1ccc(-c2ccc(F)cc2)n1 [Example 39, N-{(2S)-1-[3-(4-Fluorophenyl)-1H-pyrazol-1-yl]propan-2-yl}-N-(2-methoxyethyl)-5-methyl-2-(2H-1,2,3-triazol-2-yl)benzamide] | 1.2 nM | 5.5 nM
COCCN(C(=O)c1cc(C)ccc1-n1nccn1)[C@@H](C)Cn1ccc(-c2ccc(F)cn2)n1 [Example 40, N-{(2S)-1-[3-(5-Fluoropyridin-2-yl)-1H-pyrazol-1-yl]propan-2-yl]}-N-(2-methoxyethyl-5-methyl-2-(2H-1,2,3-triazol-2-yl)benzamide] | 1.4 nM | 12.4 nM
Cc1ccc(-n2nccn2)c(C(=O)N(CCO)[C@@H](C)Cn2cc(-c3ccc(F)cn3)cn2)c1 [Example 41, N-{(2S)-1-[4-(5-Fluoropyridin-2-yl)-1H-pyrazol-1-yl]propan-2-yl}-N-(2-hydroxyethyl)-5-methyl-2-(2H-1,2,3-triazol-2-yl)benzamide] | 30.9 nM | 86.3 nM
Cc1ccc(-n2nccn2)c(C(=O)N(CCO)[C@@H](C)Cn2ccc(-c3ccc(F)cc3)n2)c1 [Example 42, N-{(2S)-1-[3-(4-Fluorophenyl)-1H-pyrazol-1-yl]propan-2-yl}-N-(2-hydroxyethyl)-5-methyl-2-(2H-1,2,3-triazol-2-yl)benzamide] | 1.1 nM | 21.8 nM
Cc1ccc(-n2nccn2)c(C(=O)N(CCO)[C@@H](C)Cn2cc(-c3ccc(F)cc3)cn2)c1 [Example 43, N-{(2S)-1-[4-(4-Fluorophenyl)-1H-pyrazol-1-yl]propan-2-yl}-N-(2-hydroxyethyl)-5-methyl-2-(2H-1,2,3-triazol-2-yl)benzamide] | 3.5 nM | 13.6 nM
